In US20030100572A1, “Novel pyridopyrimidones and uses thereof” (ARIAD PHARMACEUTICALS,INC., priority 2001, published 2003):

Assay: Hydroxyapatite Assay (hydroxyapatite adsorption chromatography)
Type: physicochemical
Conditions: corrected retention K=(retention time-void time)/void on TSK-Gel HA 1000 HPLC column; linear gradient 10 mM to 500 mM sodium phosphate, 0.15 N NaCl, pH 6.8
Text: Hydroxyapatite is the principal mineral component of bone. Hydroxyapatite adsorption chromatography is used as an assay to evaluate the bone-targeting potential of both individual bone-targeting moieties (“monomers”) and of pharmaceuticals incorporating bone-targeting groups.
The rentention time of the compound is expressed in terms of K=(retention time-void time)/void. This K value is corrected using two reference compounds to correct from inter-column and inter-system variation to obtain a K′ value.
Reference Compounds: K′ values were determined for known bone targeted compounds, the bisphosphonate, alendronate and tetracycline.

## NCCCC(O)(P(=O)(O)O)P(=O)(O)O [Alendronate, alendronate]
  K′ value: 3.7
